The source of these data is paper PMC8629924 (Nature chemistry, 2021).

Each structure is given as a SMILES string.

This assay addresses T1, MaNifB (Methanosarcina acetivorans, UniProt Q8TIF7).
T1 sequence (Q8TIF7 1-323): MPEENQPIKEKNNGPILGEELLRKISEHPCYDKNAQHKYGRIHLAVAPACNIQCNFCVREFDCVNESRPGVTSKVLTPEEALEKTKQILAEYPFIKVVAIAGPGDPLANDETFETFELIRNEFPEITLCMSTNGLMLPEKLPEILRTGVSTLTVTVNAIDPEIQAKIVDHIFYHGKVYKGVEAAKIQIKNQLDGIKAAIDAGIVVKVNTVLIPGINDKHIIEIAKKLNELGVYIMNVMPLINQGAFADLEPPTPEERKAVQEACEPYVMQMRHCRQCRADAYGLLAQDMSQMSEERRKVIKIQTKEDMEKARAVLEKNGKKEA
The conditions noted are these: K-cluster-loaded MaNifB; dithionite-reduced or IDS-oxidized.

With `C[S+](CC[C@H](N)C(=O)O)C[C@H]1O[C@@H](n2cnc3c(N)ncnc32)[C@H](O)[C@@H]1O` (stereo partly shown) [SAM], the “CW EPR and 3-pulse ESEEM of K- to L*-cluster conversion” value is “SAM-treated MaNifB (designated MaNifB-L*) displayed a distinct change in the line-shape”.
